Test results from patent US20060241178A1, “Compositions and methods for treating lung cancer” (priority 2002, published 2006).
Entries after “also recorded” stand apart in the source; their conditions may differ. Where two headings read alike, the source gives them in different places. Marks after values point to notes of the source that are not given here.

Columns and labels:
[1] = tested on: B(a)P-induced lung adenoma; test: Tumor bioassay: B(a)P-induced lung tumorigenesis, ITC-NAC conjugates in diet during post-initiation phase
Method: The ITC conjugates were incorporated (15 μmol/g diet) into AIN-76A diets (5% corn oil) by mixing with dextrose prior to diet preparation. The conjugates, 9.36 g BITC-NAC (15 mmol) or 9.79 g PEITC-NAC (15 mmol), were dissolved in 50 ml ethyl acetate, and then mixed with 200 g dextrose to ensure even coating of dextrose particles. After mixing with dextrose, the solvent was removed using a rotary evaporator and further dried using a vacuum pump (2-3 h). Diets were prepared in 1-2 kg batches, and were stored at 4° C. in a container purged with nitrogen. […] Stability was determined by extraction of 0.5 g portions of the diet with 2.5 ml methanol (2×). The methanol extracts were combined and a 1 ml aliquot was filtered using a 0.47 μm syringe filter. A 10 μl sample was then analyzed on HPLC (Jiao, et al., Chem. Res. Toxicol., 9: 932-938, 1996).
Tumor Bioassay: Female strain A mice (Jackson Laboratories, Bar Harbor, Me.) of four weeks of age were housed under quarantine in polycarbonate cages (5 mice/cage) and provided modified AIN 76A diet (5% corn oil) and acidified drinking water ad libitum. The mice were maintained on a 12 h light: 12 h dark regimen at 22±5° C. and 50±20% relative humidity. After one week, the mice were weighed, and distributed into four groups containing 30 to 35 mice on the basis of body weight. At seven weeks of age, the mice in groups 1-3 were gavaged with a single dose of 20 μmol B(a)P in 0.2 ml cottonseed oil; group 4 received the vehicle only. Two days after dosing with the carcinogen, diets containing BITC-NAC (15 μmol/g, Group 2) and PEITC-NAC (15 μmol/g, Group 3) were provided. Groups 1 (B[a]P control) and 4 (vehicle only) remained on the modified AIN-76A diet with 5% corn oil. Tap water was provided ad libitum during the course of the bioassay. Mice were observed daily; diets were replenished on the fourth day of the week, and completely replaced on the seventh day. Mice were weighed weekly for four weeks, then monthly and at termination. At 84 days after B(a)P dosing, four mice per group were killed (CO2, cervical dislocation) to harvest lung tissues for molecular and immunohistochemical studies and to quantify lung adenomas, if present. At 140 days after B(a)P, the remaining mice in each group were killed. The number of lung tumors was recorded; lobes of lungs were placed in 10% phosphate buffered formalin for histological and immunohistochemical analysis. The remaining lung lobes were snap frozen in liquid nitrogen.
Mean tumor multiplicity and body weights at each time point were compared between groups using Student's T test.

p53 [2] = test: Western blot of lung proteins: p53 expression and phosphorylation; format: in vivo, A/J mice; conditions: lungs at termination of the bioassay
[3] = Stability of conjugates in AIN-76A diet (methanol extraction, HPLC); format: physicochemical; conditions: stored at 4° C. under nitrogen
Method: The ITC conjugates were incorporated (15 μmol/g diet) into AIN-76A diets (5% corn oil) by mixing with dextrose prior to diet preparation. […] After mixing with dextrose, the solvent was removed using a rotary evaporator and further dried using a vacuum pump (2-3 h). Diets were prepared in 1-2 kg batches, and were stored at 4° C. in a container purged with nitrogen. […] Stability was determined by extraction of 0.5 g portions of the diet with 2.5 ml methanol (2×). The methanol extracts were combined and a 1 ml aliquot was filtered using a 0.47 μm syringe filter.

JNK 1 and 2 = test: Western blot of lung total proteins: JNK phosphorylation; format: in vivo, A/J mice; conditions: lung tissue 21 days after B(a)P
[4] = tested on: alveolar epithelium cells of lung; test: In situ end-labeling (ISEL/TUNEL) of apoptosis in lung sections; format: in vivo, A/J mice
[5] = tested on: NNK/B(a)P-induced lung adenomas and adenocarcinomas; conditions: for mean numbers of lung adenomas compared with carcinogen control mice: at termination; for Adenocarcinoma Incidence (%) / Adenocarcinoma Multiplicity mean ± SD / Adenoma Incidence (%) / Adenoma Multiplicity mean ± SD: preliminary
Method: The test compounds were given in the diet on week 21 after beginning of a weekly dose of a mixture of NNK/B(a)P: 3 μmol each (621 μg NNK and 756 μg B(a)P) in 0.1 ml cottonseed oil for eight weeks (a total of 8 doses) (groups 1 to 10); only vehicle (cottonseed oil) for groups 11 to 15. Animals were then given experimental diet for 20 weeks until week 40. Four mice in groups 1, 2, 4, 6, 8, and 10 (see Table 1) were sacrificed on weeks 20, 38, and 40. The bioassay was terminated on week 52. If sufficient numbers of tumors were developed in mice killed on week 40, the bioassay was terminated at week 40. Tumors (adenomas and carcinomas) were quantified by multiplicity and incidence. At sacrifice, livers and lungs were harvested and the tissues rinsed in autoclaved PBS, stored in labeled foil, and snap frozen in liquid nitrogen. These tissues both tumorous and non-tumorous were processed by histology for biomarker studies (TUNEL, PCNA,p53, […] kinases, etc.). Lungs were examined by histology at termination (52 week or 40 week) for adenomas and carcinomas).
In this study, the potential protective effects of ITCs and ITC-NACs against progression of lung adenomas to malignant tumors were investigated. Lung tumors were induced in A/J mice with 3 μmol B(a)P plus 3 μmol NNK (gavage once/wk, 8 wks); mice were maintained on AIN-76A semi-purified diets. […] Diets containing PEITC (phenethyl ITC) or SFN (sulforaphane), each at 3 mmol/kg and 1.5 mmol/kg diet; PEITC-NAC or SFN-NAC at 8 mmol/kg and 4 mmol/kg diet; and NAC at 8 mmol/kg diet were then provided to groups of 28 mice (high dose) or 20 mice (low dose) during weeks 20 to 40 after initiation. Four mice in each high dose treatment group were killed during weeks 28 and 40 to monitor tumor incidence and progression; lung tissues were used for molecular studies. Remaining mice were killed at 40 weeks for histopathological examination. […] To assess molecular events occurring during the treatments, lung RNA of mice treated with B(a)P+NNK/control diet and B(a)P+NNK/PEITC-NAC high dose diet was examined using a Mouse Cancer Pathway Finder Gene Array.

p53 [6] = conditions: mouse epidermal cell line, with accompanying apoptosis; cited from earlier work
[7] = tested on: p53 (−/−) mouse embryo fibroblasts; conditions: cited from earlier work
[8] = tested on: aberrant crypt foci in the colon; conditions: oral, after or independent of timing of azoxymethane; cited from earlier work
A549 cells = test: Apoptosis in A549 cells treated with TPA, PEITC-NAC or TPA plus PEITC-NAC (photography, DAPI staining); format: cell-based, human; conditions: 100 nM TPA
Source text: Assay for single cell DNA strand breaks: A549 cells treated with or without TPA, PEITC-NAC or TPA plus PEITC-NAC were collected at the times specified in the text, cytocentrifuged and stained with 4′-6′diamidino-2-phenylindole (DAPI). The photographs were taken using an Olympus AX 70 microscope (Melville, N.Y.) with fluorescence and SPOT RT Slider digital image system (Diagnostic Instruments Inc., Sterling Heights, Mich.). Arrows indicated the typical apoptotic features of DNA strand breakage and nuclear fragmentation.
TPA (100 nM) was added to A549 cells 12 h prior to addition of PEITC-NAC, which was added 24 h before photography of cells, protein isolation, or DAPI staining. […] These cells were treated identically, but were stained with the DNA fluorochrome DAPI.

[9] = tested on: AP-1 binding activity in A549 cells; test: EMSA of AP-1 binding activity in A549 cells; format: cell-based, human; set-up: AP-1 binding activity: dose or concentration left out as unconfirmed; conditions: for 24 h
Method: Cell Lines: The human lung adenocarcinoma cell line A549 was obtained from the American Type Culture Collection (ATCC) (Bethesda, Md.). […] Cells were grown at 37° C. with 5% CO2.
Reagents: The PEITC was obtained from Aldrich (Milwaukee, Wis.) and its N-acetylcysteine conjugate was synthesized in house by the Organic Synthesis Facility using the method described previously (Kassahun et al., Chem Res Toxicol 1997, 10(11):1228-33). Unless specified otherwise, the A549 cells were treated with 10 or 25 μM of PEITC-NAC. TPA (12-O-tetradecanoylphorbol-13-acetate) was purchased from Sigma (St. Louis, Mo.).
Electrophoretic Mobility Shift Assay (EMSA): Double-stranded oligonucleotides containing the consensus-binding site for AP-1 were purchased commercially (Santa Cruz Biotech). The oligos were labeled with γ-^32P-ATP (6000 Ci/mmol, Armeshem Pharmacia Biotech. Inc Piscataway, N.J.) using polynucleotide kinase (Promega, Madison, Wis.) according to standard procedures. The labeled DNA was incubated with 5 μg of total proteins (as specified in the Results section) for 10 min at room temperature, in the presence of 1 μg of poly d(I)-d(C) oligomer (Roche Molecular Biochemicals, Indianapolis, Ind.) and DNA-binding buffer as described previously (Yang et al., Cell Growth Differ 1993, 4(7):595-602). The complexes were then separated on a 7.5% polyacrylamide gel and autoradiographed.
Proteins Isolation: Cells were incubated in a 37° C. with 5% CO2, followed by mock or treatments specified in the results section. Total proteins were then isolated using RIPA buffer. The protease inhibitors aprotinin (1 μg/ml), leupeptin (1 μg/ml), pepstatin (1 μg/ml), phenylmethylsulfonyl fluoride (0.1 mM) and the phosphatase inhibitor Na3VO4 (1 mM), NaF (1 mM) were added to all buffers. The protein concentrations were determined using the Coomassie Plus Protein Assay Reagent (Pierce, Rockford, Ill.), and aliquots of the proteins were stored at −80° C.

[10] = high dose (3 or 8 mmol/kg diet)
[11] = high dose (PEITC, SFN 3 mmol/kg diet; PEITC-NAC, SFN-NAC, NAC 8 mmol/kg diet)
[12] = low dose (1.5 or 4 mmol/kg diet)
[13] = low dose (PEITC, SFN 1.5 mmol/kg diet; PEITC-NAC, SFN-NAC 4 mmol/kg diet)

Row | Structure (SMILES) | mean numbers of lung adenomas compared with carcinogen control mice [5] | Adenocarcinoma Incidence (%) [5, 10] | Adenocarcinoma Multiplicity mean ± SD [5, 10] | Adenoma Incidence (%) [5, 10] | Adenoma Multiplicity mean ± SD [5, 11] | Adenocarcinoma Incidence (%) [5, 12] | Adenocarcinoma Multiplicity mean ± SD [5, 12] | Adenoma Incidence (%) [5, 12] | Adenoma Multiplicity mean ± SD [5, 13] | aberrant crypt foci formation [8] | other results
1 | CC(=O)N[C@@H](CSC(=S)NCc1ccccc1)C(=O)O [BITC-NAC, benzyl isothiocyanate-NAC] | – | – | – | – | – | – | – | – | – | – | tumor multiplicity ([1]; 15 μmol/g diet after B(a)P, at termination, B(a)P control 6.1±3.1): 3.7±2.9 tumors/mouse; Tumor Incidence (%), lung adenoma ([1]; 15 μmol/g diet from 2 days after 20 μmol B(a)P, 140 days): 94%; Tumor multiplicity (no. of tumors/mice), lung adenoma ([1]; 15 μmol/g diet from 2 days after 20 μmol B(a)P, 140 days, mean ± SD): 3.72 ± 2.90^b no. of tumors/mice; average body weight at termination ([1]; 15 μmol/g diet, controls 25.8 g and 25.7 g): 22.9 g; tumor reduction ([1]; versus B(a)P control diet group, at termination): 39%; phosphorylation of p53 at Ser15 (p53 [2]): moderate increase; stability in diet [3]: stable for at least one month; JNK 1 (p46) phosphorylation level (JNK 1 and 2): increase; JNK 2 (p54) phosphorylation (JNK 1 and 2): only slightly induced; increase in apoptosis, non-tumorous lung tissue ([4]; after 140 days): 2.4 fold; apoptotic index, fold elevation ([4]; lung tissue at 84 days, before tumors appeared): approximately 2 fold
2 | CC(=O)N[C@@H](CS)C(=O)O [NAC, N-acetyl-L-cysteine] | decreases were significant | 4/8 (50%) | 1.10 ± 1.51 | 8/8 (100%) | – | – | – | – | – | – | –
3 | S=C=NCCc1ccccc1 [PEITC, phenethyl isothiocyanate] | – | 6/32 (19%)* | – | 31/32 (96.90%) | 8.81 ± 3.96 | 7/20 (35%) | 1.15 ± 1.85 | 19/20 (95%) | 7.25 ± 4.43 | inhibited foci formation | Overall % Survival ([5]; high dose, adjusted for scheduled sacrifices, control 29.8%): 21.10%; p53 transactivation (p53 [6]): induces p53 transactivation in a dose- and time-dependent manner; induction of apoptosis [7]: did not induce apoptosis
4 | C[S+]([O-])CCCCN=C=S (centres unmarked) [SFN, sulforaphane] | – | 10/32 (31.3%) | 0.84 ± 1.48 | 30/32 (93.8%) | 8.84 ± 5.72 | 4/20 (20%) | 0.30 ± 0.64 | 20/20 (100%) | 9.25 ± 4.15 | inhibited foci formation | malignant tumor multiplicity ([5]; low dose groups, initiated control group 2.1): 0.9 tumors/mouse
5 | CC(=O)NC(CSC(=S)NCCCC[S+](C)[O-])C(=O)O (centres unmarked) [SFN-NAC, sulforaphane-NAC] | decreases were significant | 5/31 (16.13%) | 0.42 ± 1.01 | 31/31 (100%) | 9.06 ± 5.35 | 2/19 (10.53%) | 0.32 ± 0.92 | 18/19 (94.74%) | 8.53 ± 4.32 | – | –
6 | CCCCCCCCCCCCCC(=O)O[C@@H]1[C@@H](C)[C@@]2(O)[C@@H](C=C(CO)C[C@]3(O)C(=O)C(C)=C[C@@H]23)[C@@H]2C(C)(C)[C@]12OC(C)=O [TPA, 12-O-tetradecanoylphorbol-13-acetate] | – | – | – | – | – | – | – | – | – | – | cell growth / apoptosis with TPA alone (A549 cells): appear to be growing well; also recorded: did not cause apoptosis in A549 cells; AP-1 binding activity [9]: specifically induced
